Laboratory results reported in patent US5296367A (priority 1991, dated 1994).
*1 amine or outer side, *2 acyl side, *3 side chain or, on linkers, in order; H or OH if unused. Where a SMILES comes first, the peptide text is derived from it. CO = O=C([*:1])[*:2]

Biological target: T1, alkaline proteinase K-16 from Bacillus sp. KSM-K16 (Shouchella clausii, UniProt Q99405)
T1 construct: made in house; host or cells: Bacillus sp; KSM-K16 (own producer strain, culture)
T1 sequence (Q99405 112-380): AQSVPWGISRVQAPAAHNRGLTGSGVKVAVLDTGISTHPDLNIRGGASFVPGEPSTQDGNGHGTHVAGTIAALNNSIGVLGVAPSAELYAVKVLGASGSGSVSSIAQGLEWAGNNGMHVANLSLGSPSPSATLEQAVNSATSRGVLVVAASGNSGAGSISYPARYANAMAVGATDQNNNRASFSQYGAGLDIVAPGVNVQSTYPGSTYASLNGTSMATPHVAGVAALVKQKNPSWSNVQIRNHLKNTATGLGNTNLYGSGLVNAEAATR
Type: biochemical
Settings: for Residual activity (%): pH 7

| Compound | Effect of inhibitor on activity (in words) | Residual activity (%) |
| --- | --- | --- |
| O=S(=O)(F)Cc1ccccc1 [PMSF, Phenylmethanesulfonyl fluoride] | inhibited | 1.5 |
| O=C(O)CN(CCN(CC(=O)O)CC(=O)O)CC(=O)O [EDTA, Ethylenediaminetetraacetic acid] | not inhibited | – |
| CC(C)[C@H](NC(=O)[C@H](CCCNC(=N)N)NC(=O)N[C@@H](Cc1ccccc1)C(=O)O)C(=O)N[C@H](C=O)CCCNC(=N)N [Antipain] ({Phe-CO}-Arg-Val-Arg-aldehyde) | not inhibited | – |
| chymostatin | inhibited | 34 |
